Measured values from PubChem BioAssay (NCI).
Values joined by “and” are separate entries in the source; they are usually repeats but may differ in a detail not shown here. Identical values can stand only once.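 Assay format: 96-well plates, 48-hour exposure. GI50: concentration for 50% inhibition of growth. TGI denotes the concentration required for complete inhibition of growth.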

Assays:
Test in all cases: inhibition of tumour cell growth, NCI panel, 48 h
[1] = system: KM12 colon
[2] = system: SF-268 CNS
[3] = system: MCF7 breast
[4] = system: OVCAR-4 ovarian
[5] = system: OVCAR-5 ovarian
[6] = system: HS 578T breast
[7] = system: PC-3 prostate
[8] = system: K-562 leukemia
[9] = system: IGROV1 ovarian
[10] = system: HL-60(TB) leukemia

CC(=O)C1CC2(c3ccc(C)cc3)C(c3ccc(C)cc3)=C(c3ccc(C)cc3)C1(c1ccc(C)cc1)S2=O (stereo unspecified)
GI50 [1]: > 100 µM | TGI [1]: > 100 µM | GI50 [2]: > 100 µM | TGI [2]: > 100 µM | GI50 [3]: > 100 µM | TGI [3]: > 100 µM | GI50 [4]: 79.9 µM | TGI [4]: > 100 µM | GI50 [5]: > 100 µM | TGI [5]: > 100 µM | GI50 [6]: > 100 µM | TGI [6]: > 100 µM | GI50 [7]: > 100 µM | TGI [7]: > 100 µM | GI50 [8]: > 100000 nM | TGI [8]: > 100 µM | GI50 [9]: 70.2 µM | TGI [9]: > 100 µM

CC1(C)COCN1COC1CCCCC1
TGI [1]: > 100 µM | TGI [2]: > 100 µM | TGI [3]: > 100 µM | TGI [4]: > 100 µM | TGI [5]: > 100 µM | TGI [6]: > 100 µM | TGI [7]: > 100 µM | TGI [8]: > 100 µM | TGI [9]: > 100 µM

O=C1C(=Cc2ccco2)C(=O)C2CCCCC12 (stereo unspecified)
TGI [1]: > 100 µM | TGI [2]: > 100 µM | TGI [3]: > 100 µM | TGI [4]: > 100 µM | TGI [5]: > 100 µM | TGI [6]: > 100 µM | TGI [7]: > 100 µM | TGI [8]: 73.2 µM | TGI [9]: > 100 µM

Nc1nc(Nc2ccc3c(c2)CC[C@@H](N2CCCC2)CC3)nn1-c1cc2c(nn1)-c1ccccc1CCC2
GI50 [1]: 1.83 µM | TGI [1]: 3.71 µM | GI50 [2]: 1.44 µM | TGI [2]: 3.26 µM | GI50 [4]: 1.44 µM | TGI [4]: 3.31 µM | GI50 [5]: 1.63 µM | TGI [5]: 3.29 µM | GI50 [6]: 1.79 µM | TGI [6]: 4.86 µM

COC(=O)NC/C=C\c1nc(CC/C=C\C(=O)OC2CC3CC(=O)O[C@H](/C=C/CC(C)C)C[C@H]4CCC(C)C(C[C@H](OC)CC(C2)O3)O4)co1 (stereo partly specified)
GI50 [1]: 4.25 µM | TGI [1]: > 100 µM | GI50 [2]: < 0.01 µM | TGI [2]: 24.3 µM | GI50 [3]: < 0.01 µM | TGI [3]: 10.5 µM | GI50 [4]: 23.4 µM | TGI [4]: > 100 µM | GI50 [5]: 0.877 µM | TGI [5]: > 100 µM | GI50 [6]: 18.2 µM | TGI [6]: > 100 µM | GI50 [7]: 0.218 µM | TGI [7]: > 100 µM | GI50 [8]: < 10 nM | TGI [8]: 20.3 µM | GI50 [9]: 2.51 µM | TGI [9]: > 100 µM

C[C@@H]1O[C@@H](O[C@@H]2[C@@H](O)[C@H](OCCc3ccc(O)c(O)c3)O[C@H](COC(=O)/C=C/c3ccc(O)c(O)c3)[C@H]2O)[C@H](O)[C@H](O)[C@H]1O
GI50 [1]: > 100 µM | TGI [1]: > 100 µM | GI50 [10]: 54.4 µM | TGI [10]: > 100 µM | GI50 [4]: > 100 µM | TGI [4]: > 100 µM | GI50 [5]: > 100 µM | TGI [5]: > 100 µM | GI50 [6]: > 100 µM | TGI [6]: > 100 µM | GI50 [7]: 0.524 µM | TGI [7]: > 100 µM | GI50 [8]: 36700 nM | TGI [8]: > 100 µM | GI50 [9]: > 100 µM | TGI [9]: > 100 µM

c1cc2c(cc1C(N1CCNCC1)N1CCNCC1)OCO2
TGI [1]: > 100 µM | TGI [2]: > 100 µM | TGI [3]: > 100 µM | TGI [4]: > 100 µM | TGI [5]: > 100 µM | TGI [6]: > 100 µM | TGI [7]: > 100 µM | TGI [8]: 5.6 µM | TGI [9]: > 100 µM

C=C1CC[C@@]2(C#N)[C@H]3[C@H](CC[C@@H]2C)[C@@H](C)C[C@@H](CC(C)(C)C#N)[C@H]13
GI50 [1]: 0.471 µM | TGI [1]: 18.9 µM | GI50 [2]: 2.34 µM | TGI [2]: 35.3 µM | GI50 [3]: 0.785 µM | TGI [3]: 15.8 µM | GI50 [10]: 2.48 µM | TGI [10]: 29.5 µM | GI50 [4]: 2.14 µM | TGI [4]: 41 µM | GI50 [6]: 0.637 µM | TGI [6]: 55 µM | GI50 [7]: 0.283 µM | TGI [7]: 30.5 µM | GI50 [8]: 460 nM | TGI [8]: > 100 µM | GI50 [9]: 4.77 µM | TGI [9]: 59.4 µM

O=C(/C=C/C=C/c1ccccc1)CCc1ccccc1
TGI [1]: > 100 µM | TGI [2]: > 100 µM | TGI [3]: > 100 µM | TGI [10]: 53 µM | TGI [4]: > 100 µM | TGI [5]: > 100 µM | TGI [6]: > 100 µM | TGI [7]: > 100 µM | TGI [9]: > 100 µM

C=C1C(=O)O[C@@H]2C1C[C@@H](O)/C(C)=C/C/C=C(\C)CCC[C@H](C)[C@H]2OC(C)=O (stereo partly specified)
GI50 [1]: 20.8 µM | TGI [1]: 41.7 µM | GI50 [2]: 33.9 µM | TGI [2]: > 100 µM | GI50 [3]: 20 µM | TGI [3]: 46.2 µM | GI50 [4]: 42.8 µM | TGI [4]: > 100 µM | GI50 [5]: 56.3 µM | TGI [5]: > 100 µM | GI50 [6]: 29.1 µM | TGI [6]: 76 µM | GI50 [7]: 21.4 µM | TGI [7]: 51.3 µM | GI50 [9]: 8.84 µM | TGI [9]: 32.7 µM

CCOC(=O)Cc1csc(/N=C2\NC(=O)/C(=C3\C(=O)N(C)c4ccccc43)S2)n1
GI50 [1]: 23.3 µM | TGI [1]: 83.8 µM | GI50 [2]: 45.2 µM | TGI [2]: > 100 µM | GI50 [3]: 46.8 µM | TGI [3]: > 100 µM | GI50 [4]: 35.2 µM | TGI [4]: > 100 µM | GI50 [5]: > 100 µM | TGI [5]: > 100 µM | GI50 [6]: 66.7 µM | TGI [6]: > 100 µM | GI50 [7]: 34.1 µM | TGI [7]: > 100 µM | GI50 [8]: 36000 nM | TGI [8]: > 100 µM | GI50 [9]: 20.6 µM | TGI [9]: 69.2 µM

c1nc2cscc2c2cscc12
TGI [1]: > 100 µM | TGI [2]: > 100 µM | TGI [10]: > 100 µM | TGI [4]: > 100 µM | TGI [5]: > 100 µM | TGI [8]: > 100 µM | TGI [9]: > 100 µM

COc1ccc(/C=C\c2cc(OC)c(OC)c(OC)c2)cc1OC(=O)C(N)CCC(=O)O (stereo unspecified)
GI50 [1]: 0.00156 µM | TGI [1]: 0.0073 µM | GI50 [3]: 0.00503 µM | TGI [3]: > 100 µM | GI50 [10]: 0.00017 µM | TGI [10]: 0.000422 µM and 0.00275 µM | TGI [4]: > 100 µM | TGI [5]: > 100 µM | GI50 [6]: 0.000788 µM and 0.00046 µM | GI50 [7]: 0.00125 µM and 0.000357 µM | GI50 [8]: 0.311 nM and 0.0702 nM | GI50 [9]: 0.00415 µM and 0.000539 µM and 0.000824 µM | TGI [9]: > 100 µM

COc1ccc(/C=C2\CN(C(=O)C(Cl)Cl)C/C(=C\c3ccc(OC)c(OC)c3)C2=O)cc1OC
GI50 [1]: 0.0987 µM | TGI [1]: 0.332 µM | GI50 [2]: 2.42 µM | TGI [2]: > 100 µM | GI50 [10]: 0.221 µM | TGI [10]: 0.711 µM | GI50 [7]: 0.301 µM | TGI [7]: 2.4 µM | GI50 [8]: 36.6 nM | TGI [8]: > 100 µM | GI50 [9]: 0.321 µM | TGI [9]: 1.75 µM

Clc1ccc(-n2nnc(C3=NCCCN3)c2-c2ccccc2)cc1
TGI [1]: > 100 µM | TGI [2]: > 100 µM | TGI [10]: > 100 µM | TGI [4]: > 100 µM | TGI [5]: > 100 µM | TGI [8]: > 100 µM | TGI [9]: > 100 µM

CCCCCCCCCNCCCCCCCCC
GI50 [1]: 1.83 µM | TGI [1]: 3.29 µM | GI50 [2]: 2.29 µM | TGI [2]: 5.28 µM | GI50 [3]: 1.7 µM | TGI [3]: 3.3 µM | GI50 [4]: 1.75 µM | TGI [4]: 3.78 µM | GI50 [5]: 1.88 µM | TGI [5]: 3.91 µM | GI50 [6]: 1.83 µM | TGI [6]: 4.16 µM | GI50 [7]: 2.03 µM | TGI [7]: 4.7 µM | GI50 [9]: 1.89 µM | TGI [9]: 3.8 µM

COC(=O)/C=C(C)/C=C/c1cc(C(C)=O)c(C)o1
TGI [1]: > 100 µM | TGI [2]: > 100 µM | TGI [10]: > 100 µM | TGI [4]: > 100 µM | TGI [5]: > 100 µM | TGI [8]: > 100 µM | TGI [9]: > 100 µM

CC(=O)[CH-]C(=O)c1ccccc1.CC(=O)[CH-]C(=O)c1ccccc1.CC(=O)[CH-]C(=O)c1ccccc1.[Tl+3]
GI50 [1]: 42.8 µM | TGI [1]: > 100 µM | GI50 [2]: 29.3 µM | TGI [2]: > 100 µM | GI50 [10]: 4.83 µM | TGI [10]: 16.9 µM | GI50 [4]: 26.1 µM | TGI [4]: > 100 µM | GI50 [5]: > 100 µM | TGI [5]: > 100 µM | GI50 [8]: 2320 nM | TGI [8]: > 100 µM | GI50 [9]: 24.5 µM | TGI [9]: > 68.6 µM
